The results in this text go back to patent US7872014B2, “Anaplastic lymphoma kinase modulators and methods of use” (Exelixis, Inc., priority 2003, dated 2011).

pIC50: −log10 of the molar value.

T1 sequence (Q9UM73 1098-1410): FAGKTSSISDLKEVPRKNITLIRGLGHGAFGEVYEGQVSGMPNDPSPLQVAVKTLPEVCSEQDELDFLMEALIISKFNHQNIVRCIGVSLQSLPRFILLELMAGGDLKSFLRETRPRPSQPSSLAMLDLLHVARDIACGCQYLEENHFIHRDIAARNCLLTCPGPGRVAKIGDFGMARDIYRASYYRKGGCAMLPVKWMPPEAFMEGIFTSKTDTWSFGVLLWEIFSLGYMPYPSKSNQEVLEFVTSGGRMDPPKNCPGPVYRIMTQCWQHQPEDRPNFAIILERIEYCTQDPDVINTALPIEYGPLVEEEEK

The test addresses T1, ALK (baculovirus expressed human ALK kinase domain F1098-K1410) (Homo sapiens, UniProt Q9UM73).
T1 construct: baculovirus expressed human ALK kinase domain F1098-K1410; made in house
Kind of test: Luciferase-Coupled Chemiluminescent Kinase assay (LCCA), ALK biochemical activity. The conditions noted are these: inhibition of ALK; mean values; 1 μM ATP, 4 μM poly-AEKY, 12 nM ALK, 2 hours ambient temperature. In outline: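 Luciferase-coupled readout of ATP remaining after reaction of 12 nM ALK kinase domain with 1 μM ATP and 4 μM poly-AEKY, Tris-HCl pH 7.5 buffer with MgCl2 and MnCl2. Incubated 2 h at ambient temperature; inhibition derived from ATP consumption across serial compound dilutions.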
As for `CCN1CCC(CCOc2cc(F)c3c(-c4ccc(O)c(Cl)c4)nc4[nH]nc(C)c4c3c2OC)CC1` [Example 218, 2-chloro-4-[8-{[2-(1-ethylpiperidin-4-yl)ethyl]oxy}-6-fluoro-1-methyl-9-(methyloxy)-3H-pyrazolo[3,4-c]isoquinolin-5-yl]phenol], the pIC50 was at least 7.00.

In turn, `CCN(CC)CCOc1cc(F)c2c(-c3ccc(O)c(Cl)c3)nc3[nH]nc(C)c3c2c1OC` [Example 219, 2-chloro-4-[8-{[2-(diethylamino)ethyl]oxy}-6-fluoro-1-methyl-9-(methyloxy)-3H-pyrazolo[3,4-c]isoquinolin-5-yl]phenol] had a pIC50 of at least 7.00. As to `COc1c(OCCN2CCCC2)cc(F)c2c(-c3ccc(Cl)c(O)c3)nc3[nH]nc(C)c3c12` [Example 220, 2-chloro-5-{6-fluoro-1-methyl-9-(methyloxy)-8-[(2-pyrrolidin-1-ylethyl)oxy]-3H-pyrazolo[3,4-c]isoquinolin-5-yl}phenol], the negative-log IC50 (pIC50) is at least 7.00. As for `Cc1n[nH]c2nc(-c3cn(C)c(=N)s3)c3c(F)cc(O)c(F)c3c12` [Example 221, 6,9-difluoro-5-(2-imino-3-methyl-2,3-dihydro-1,3-thiazol-5-yl)-1-methyl-3H-pyrazolo[3,4-c]isoquinolin-8-ol], the figure is 5.70 to 6.00; as for `COc1c(OC2CC3CCC(C2)N3C)cc(F)c2c(-c3ccc(O)c(Cl)c3)nc3[nH]nc(C)c3c12` (stereo not drawn) [Example 223, 2-chloro-4-[6-fluoro-1-methyl-8-[(8-methyl-8-azabicyclo[3.2.1]oct-3-yl)oxy]-9-(methyloxy)-3H-pyrazolo[3,4-c]isoquinolin-5-yl]phenol], at least 7.00.

`COc1c(OCCCN2CCCC2)cc(F)c2c(-c3ccc(O)c(Cl)c3)nc3[nH]nc(C)c3c12` [Example 224, 2-chloro-4-{6-fluoro-1-methyl-9-(methyloxy)-8-[(3-pyrrolidin-1-ylpropyl)oxy]-3H-pyrazolo[3,4-c]isoquinolin-5-yl}phenol] showed a pIC50 of at least 7.00. As for `COc1c(OCCCN2CCCCC2)cc(F)c2c(-c3ccc(O)c(Cl)c3)nc3[nH]nc(C)c3c12` [Example 225, 2-chloro-4-{6-fluoro-1-methyl-9-(methyloxy)-8-[(3-piperidin-1-ylpropyl)oxy]-3H-pyrazolo[3,4-c]isoquinolin-5-yl}phenol], the figure is at least 7.00. The result for `COc1c(OCCCN2CCOCC2)cc(F)c2c(-c3ccc(O)c(Cl)c3)nc3[nH]nc(C)c3c12` [Example 226, 2-chloro-4-{6-fluoro-1-methyl-9-(methyloxy)-8-[(3-morpholin-4-ylpropyl)oxy]-3H-pyrazolo[3,4-c]isoquinolin-5-yl}phenol] reads at least 7.00; that for `COc1c(OCCN(C)CCN(C)C)cc(F)c2c(-c3ccc(O)c(Cl)c3)nc3[nH]nc(C)c3c12` [Example 227, 2-chloro-4-[8-({2-[[2-(dimethylamino)ethyl](methyl)amino]ethyl}oxy)-6-fluoro-1-methyl-9-(methyloxy)-3H-pyrazolo[3,4-c]isoquinolin-5-yl]phenol], at least 7.00; that for `CCN(CC)CCN(C)CCOc1cc(F)c2c(-c3ccc(O)c(Cl)c3)nc3[nH]nc(C)c3c2c1OC` [Example 228, 2-chloro-4-[8-({2-[[2-(diethylamino)ethyl](methyl)amino]ethyl}oxy)-6-fluoro-1-methyl-9-(methyloxy)-3H-pyrazolo[3,4-c]isoquinolin-5-yl]phenol], at least 7.00. The compound `CCN(CCOc1cc(F)c2c(-c3ccc(O)c(Cl)c3)nc3[nH]nc(C)c3c2c1OC)CCN(C)C` [Example 229, 2-chloro-4-[8-({2-[[2-(dimethylamino)ethyl](ethyl)amino]ethyl}oxy)-6-fluoro-1-methyl-9-(methyloxy)-3H-pyrazolo[3,4-c]isoquinolin-5-yl]phenol] gave a negative logarithm of the IC50 (pIC50) of at least 7.00. In turn, `COc1c(OCCN(CCCN(C)C)CCCN(C)C)cc(F)c2c(-c3ccc(O)c(Cl)c3)nc3[nH]nc(C)c3c12` [Example 230, 4-[8-[(2-{bis[3-(dimethylamino)propyl]amino}ethyl)oxy]-6-fluoro-1-methyl-9-(methyloxy)-3H-pyrazolo[3,4-c]isoquinolin-5-yl]-2-chlorophenol] had a pIC50 of at least 7.00. Take `COc1c(OCCN(C)C2CCN(C)C2)cc(F)c2c(-c3ccc(O)c(Cl)c3)nc3[nH]nc(C)c3c12` (stereo not drawn) [Example 231, 2-chloro-4-[6-fluoro-1-methyl-8-({2-[methyl(1-methylpyrrolidin-3-yl)amino]ethyl}oxy)-9-(methyloxy)-3H-pyrazolo[3,4-c]isoquinolin-5-yl]phenol]: the pIC50 is at least 7.00. The compound `COC[C@@H]1CCCN1CCOc1cc(F)c2c(-c3ccc(O)c(Cl)c3)nc3[nH]nc(C)c3c2c1OC` [Example 232, 2-chloro-4-{6-fluoro-1-methyl-9-(methyloxy)-8-[(2-{(2S)-2-[(methyloxy)methyl]pyrrolidin-1-yl}ethyl)oxy]-3H-pyrazolo[3,4-c]isoquinolin-5-yl}phenol] gave a pIC50 of at least 7.00. `COc1c(OCCN2CCC(N3CCCC3)CC2)cc(F)c2c(-c3ccc(O)c(Cl)c3)nc3[nH]nc(C)c3c12` [Example 233, 2-chloro-4-(6-fluoro-1-methyl-9-(methyloxy)-8-{[2-(4-pyrrolidin-1-ylpiperidin-1-yl)ethyl]oxy}-3H-pyrazolo[3,4-c]isoquinolin-5-yl)phenol] showed a pIC50 of at least 7.00.

As to `COc1c(OCCN2CCN(C3CCCCC3)CC2)cc(F)c2c(-c3ccc(O)c(Cl)c3)nc3[nH]nc(C)c3c12` [Example 234, 2-chloro-4-[8-{[2-(4-cyclohexylpiperazin-1-yl)ethyl]oxy}-6-fluoro-1-methyl-9-(methyloxy)-3H-pyrazolo[3,4-c]isoquinolin-5-yl]phenol], the pIC50 is at least 7.00.

As for `COc1c(OCCN2CCN(CC(=O)NC(C)C)CC2)cc(F)c2c(-c3ccc(O)c(Cl)c3)nc3[nH]nc(C)c3c12` [Example 235, 2-[4-(2-{[5-(3-chloro-4-hydroxyphenyl)-6-fluoro-1-methyl-9-(methyloxy)-3H-pyrazolo[3,4-c]isoquinolin-8-yl]oxy}ethyl)piperazin-1-yl]-N-(1-methylethyl)acetamide], the pIC50 was at least 7.00.

Compound `COc1c(OCCN2CCC(N3CCCCC3)CC2)cc(F)c2c(-c3ccc(O)c(Cl)c3)nc3[nH]nc(C)c3c12` [Example 236, 4-[8-{[2-(1,4′-bipiperidin-1′-yl)ethyl]oxy}-6-fluoro-1-methyl-9-(methyloxy)-3H-pyrazolo[3,4-c]isoquinolin-5-yl]-2-chlorophenol] gave a pIC50 of at least 7.00. Consider `COc1c(OCCN2CCCN(C)CC2)cc(F)c2c(-c3ccc(O)c(Cl)c3)nc3[nH]nc(C)c3c12` [Example 237, 2-chloro-4-[6-fluoro-1-methyl-8-{[2-(4-methyl-1,4-diazepan-1-yl)ethyl]oxy}-9-(methyloxy)-3H-pyrazolo[3,4-c]isoquinolin-5-yl]phenol], for which the pIC50 was at least 7.00. `COc1c(OCCN2CCN(c3ccccn3)CC2)cc(F)c2c(-c3ccc(O)c(Cl)c3)nc3[nH]nc(C)c3c12` [Example 238, 2-chloro-4-(6-fluoro-1-methyl-9-(methyloxy)-8-{[2-(4-pyridin-2-ylpiperazin-1-yl)ethyl]oxy}-3H-pyrazolo[3,4-c]isoquinolin-5-yl)phenol] had a negative-log IC50 (pIC50) of at least 7.00. In the case of `COc1c(OCCN2CC(C)OC(C)C2)cc(F)c2c(-c3ccc(O)c(Cl)c3)nc3[nH]nc(C)c3c12` (stereo not drawn) [Example 239, 2-chloro-4-[8-{[2-(2,6-dimethylmorpholin-4-yl)ethyl]oxy}-6-fluoro-1-methyl-9-(methyloxy)-3H-pyrazolo[3,4-c]isoquinolin-5-yl]phenol], the pIC50 is at least 7.00. In turn, `COc1c(OCCN2CCSCC2)cc(F)c2c(-c3ccc(O)c(Cl)c3)nc3[nH]nc(C)c3c12` [Example 240, 2-chloro-4-{6-fluoro-1-methyl-9-(methyloxy)-8-[(2-thiomorpholin-4-ylethyl)oxy]-3H-pyrazolo[3,4-c]isoquinolin-5-yl}phenol] showed a negative logarithm of the IC50 (pIC50) of at least 7.00.

In turn, `COc1c(OCCN2C(C)CCCC2C)cc(F)c2c(-c3ccc(O)c(Cl)c3)nc3[nH]nc(C)c3c12` (stereo not drawn) [Example 241, 2-chloro-4-[8-{[2-(2,6-dimethylpiperidin-1-yl)ethyl]oxy}-6-fluoro-1-methyl-9-(methyloxy)-3H-pyrazolo[3,4-c]isoquinolin-5-yl]phenol] had a pIC50 of at least 7.00. In turn, `COc1c(OCCN2CCCC3CCCCC32)cc(F)c2c(-c3ccc(O)c(Cl)c3)nc3[nH]nc(C)c3c12` (stereo not drawn) [Example 242, 2-chloro-4-(6-fluoro-1-methyl-9-(methyloxy)-8-{[2-(octahydroquinolin-1(2H)-yl)ethyl]oxy}-3H-pyrazolo[3,4-c]isoquinolin-5-yl)phenol] showed a negative-log IC50 (pIC50) of at least 7.00. As for `COc1c(OCCN(C(C)C)C(C)C)cc(F)c2c(-c3ccc(O)c(Cl)c3)nc3[nH]nc(C)c3c12` [Example 243, 4-[8-({2-[bis(1-methylethyl)amino]ethyl}oxy)-6-fluoro-1-methyl-9-(methyloxy)-3H-pyrazolo[3,4-c]isoquinolin-5-yl]-2-chlorophenol], the pIC50 was at least 7.00. `COCCN(CCOC)CCOc1cc(F)c2c(-c3ccc(O)c(Cl)c3)nc3[nH]nc(C)c3c2c1OC` [Example 244, 4-[8-[(2-{bis[2-(methyloxy)ethyl]amino}ethyl)oxy]-6-fluoro-1-methyl-9-(methyloxy)-3H-pyrazolo[3,4-c]isoquinolin-5-yl]-2-chlorophenol] showed a pIC50 of at least 7.00.

Compound `COc1c(OCCN2CCCCC2)cc(F)c2c(-c3ccc(O)c(Cl)c3)nc3[nH]nc(C)c3c12` [Example 245, 2-chloro-4-{6-fluoro-1-methyl-9-(methyloxy)-8-[(2-piperidin-1-ylethyl)oxy]-3H-pyrazolo[3,4-c]isoquinolin-5-yl}phenol] showed a pIC50 of at least 7.00.
